In patent US6737383B1, “Herbicidal oxadiazolidines” (priority 1999, dated 2004):

What was measured:
[1] = system: blackgrass; experiment: Test B pre/postemergence blackgrass; assay type: in vivo, Alopecurus myosuroides
Procedure, shortened: (§1)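 Test chemicals in a non-phytotoxic solvent mixture with surfactant were sprayed preemergence onto planted seeds and postemergence onto plants 2 to 18 cm tall (1- to 4-leaf stage). After twelve to sixteen days in a greenhouse, injury was visually rated against untreated controls from 0 (no effect) to 10 (complete control).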

[2] = system: surinam grass; experiment: Test B pre/postemergence surinam grass; assay type: in vivo, Brachiaria decumbens
Procedure, shortened: as §1

[3] = system: cocklebur; experiment: Test B pre/postemergence cocklebur; assay type: in vivo, Xanthium strumarium
Procedure, shortened: as §1

[4] = system: corn; experiment: Test B pre/postemergence corn; assay type: in vivo, Zea mays
Procedure, shortened: as §1

[5] = system: crabgrass; experiment: Test B pre/postemergence crabgrass; assay type: in vivo, Digitaria sanguinalis
Procedure, shortened: as §1

[6] = system: giant foxtail; experiment: Test B pre/postemergence giant foxtail; assay type: in vivo, Setaria faberii
Procedure, shortened: as §1

[7] = system: morningglory; experiment: Test B pre/postemergence morningglory; assay type: in vivo, Ipomoea hederacea
Procedure, shortened: as §1

[8] = system: pigweed; experiment: Test B pre/postemergence pigweed; assay type: in vivo, Amaranthus retroflexus
Procedure, shortened: as §1

[9] = system: rape; experiment: Test B pre/postemergence rape; assay type: in vivo, Brassica napus
Procedure, shortened: as §1

[10] = system: sugar beet; experiment: Test B pre/postemergence sugar beet; assay type: in vivo, Beta vulgaris
Procedure, shortened: as §1

[11] = system: velvetleaf; experiment: Test B pre/postemergence velvetleaf; assay type: in vivo, Abutilon theophrasti
Procedure, shortened: as §1

[12] = system: wheat; experiment: Test B pre/postemergence wheat; assay type: in vivo, Triticum aestivum
Procedure, shortened: as §1

[13] = system: purple nutsedge; experiment: Test B pre/postemergence purple nutsedge; assay type: in vivo, Cyperus rotundus
Procedure, shortened: as §1

[14] = system: rice; experiment: Test B flood test rice; assay type: in vivo, Oryza sativa
Procedure, shortened: (§2)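 Plants were grown to the 2-leaf stage before treatment with test chemical, then held in a greenhouse for twelve to sixteen days. Injury was visually rated against untreated controls on a 0–10 scale, where 0 is no effect and 10 is complete control.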

[15] = system: smallflower flatsedge; experiment: Test B flood test smallflower flatsedge; assay type: in vivo, Cyperus difformis
Procedure, shortened: as §2

[16] = system: duck salad; experiment: Test B flood test duck salad; assay type: in vivo, Heteranthera limosa
Procedure, shortened: as §2

[17] = Postemergence, Rate 62 g/ha, scale of 0 to 10, 0 is no effect, 10 is complete control
[18] = Postemergence, Rate 125 g/ha, scale 0 to 10, 0 is no effect, 10 is complete control
[19] = Postemergence, Rate 500 g/ha, scale 0 to 10, 0 is no effect, 10 is complete control
[20] = Preemergence, Rate 62 g/ha, scale 0 to 10 (0 no effect, 10 complete control)
[21] = Preemergence, Rate 125 g/ha, scale 0 to 10, 0 is no effect, 10 is complete control
[22] = Preemergence, Rate 500 g/ha, scale of 0 to 10 where 0 is no effect and 10 is complete control
[23] = Rate 250 g/ha, Postemergence, scale of 0 to 10 where 0 is no effect and 10 is complete control
[24] = Rate 62 g/ha, flood test species, Pre-emergence, visual evaluation after twelve to sixteen days
[25] = Rate 125 g/ha, under heading Pre-emergence, flood test species, visual evaluation after twelve to sixteen days
[26] = Rate 250 g/ha, Pre-emergence (flood test species), scale 0 to 10, 0 is no effect, 10 is complete control
[27] = Rate 500 g/ha, Pre-emergence section of Table B, 0 to 10 scale (0 no effect, 10 complete control)

SMILES: CC(C)N(C(=O)n1oc(=O)n(CC2CCC2)c1=O)c1ccc(Cl)cc1 [Compound 550]
- Blackgrass plant response rating [1, 17]: 0
- Blackgrass plant response rating [1, 18]: 0
- Plant response rating, Blackgrass [1, 19]: 2
- Blackgrass plant response rating [1, 20]: 0
- Blackgrass plant response rating [1, 21]: 2
- Blackgrass plant response rating (0 to 10 scale) ([1]; Preemergence, Rate 250 g/ha): 7
- Blackgrass plant response rating [1, 22]: 9
- Plant response rating, Blackgrass [1, 23]: 2
- B. signalgrass plant response rating [2, 17]: 0
- B. signalgrass plant response rating [2, 18]: 0
- Plant response rating, B. signalgrass [2, 19]: 2
- B. signalgrass plant response rating [2, 20]: 6
- B. signalgrass plant response rating [2, 21]: 9
- B. signalgrass plant response rating (0 to 10 scale, 0 is no effect, 10 is complete control) ([2]; Preemergence, Rate 250 g/ha): 9
- B. signalgrass plant response rating [2, 22]: 10
- Plant response rating, B. signalgrass [2, 23]: 2
- Cocklebur plant response rating [3, 17]: 0
- Cocklebur plant response rating [3, 18]: 0
- Plant response rating, Cocklebur [3, 19]: 2
- Cocklebur plant response rating [3, 20]: 0
- Cocklebur plant response rating [3, 21]: 0
- Cocklebur plant response rating (0 to 10 scale) ([3]; Preemergence, Rate 250 g/ha): 0
- Cocklebur plant response rating [3, 22]: 0
- Plant response rating, Cocklebur [3, 23]: 1
- Corn plant response rating [4, 17]: 0
- Corn plant response rating [4, 18]: 0
- Plant response rating, Corn [4, 19]: 2
- Corn plant response rating [4, 20]: 0
- Corn plant response rating [4, 21]: 0
- Corn plant response rating (0 to 10 scale) ([4]; Preemergence, Rate 250 g/ha): 0
- Corn plant response rating [4, 22]: 0
- Plant response rating, Corn [4, 23]: 0
- Crabgrass plant response rating [5, 18]: 7
- Crabgrass plant response rating [5, 20]: 4
- Crabgrass plant response rating [5, 21]: 10
- Crabgrass plant response rating (0 to 10 scale) ([5]; Preemergence, Rate 250 g/ha): 10
- Crabgrass plant response rating [5, 22]: 10
- Plant response rating, Crabgrass [5, 23]: 10
- Giant foxtail plant response rating [6, 17]: 2
- Giant foxtail plant response rating [6, 18]: 6
- Plant response rating, Giant foxtail [6, 19]: 9
- Giant foxtail plant response rating [6, 20]: 7
- Giant foxtail plant response rating [6, 21]: 9
- Giant foxtail plant response rating (0 to 10 scale) ([6]; Preemergence, Rate 250 g/ha): 10
- Giant foxtail plant response rating [6, 22]: 10
- Plant response rating, Giant foxtail [6, 23]: 9
- Morningglory plant response rating [7, 17]: 1
- Morningglory plant response rating [7, 18]: 1
- Plant response rating, Morningglory [7, 19]: 8
- Morningglory plant response rating [7, 20]: 0
- Morningglory plant response rating [7, 21]: 0
- Morningglory plant response rating (0 to 10 scale) ([7]; Preemergence, Rate 250 g/ha): 0
- Morningglory plant response rating [7, 22]: 0
- Plant response rating, Morningglory [7, 23]: 9
- Redroot pigweed plant response rating [8, 17]: 0
- Redroot pigweed plant response rating [8, 18]: 0
- Plant response rating, Redroot pigweed [8, 19]: 0
- Redroot pigweed plant response rating [8, 20]: 7
- Redroot pigweed plant response rating [8, 21]: 9
- Redroot pigweed plant response rating (0 to 10 scale) ([8]; Preemergence, Rate 250 g/ha): 9
- Redroot pigweed plant response rating [8, 22]: 10
- Plant response rating, Redroot pigweed [8, 23]: 0
- Rape plant response rating [9, 17]: 0
- Rape plant response rating [9, 18]: 3
- Plant response rating, Rape [9, 19]: 3
- Rape plant response rating [9, 20]: 0
- Rape plant response rating [9, 21]: 0
- Rape plant response rating (0 to 10 scale) ([9]; Preemergence, Rate 250 g/ha): 6
- Rape plant response rating [9, 22]: 9
- Sugarbeets plant response rating [10, 17]: 0
- Sugarbeets plant response rating [10, 18]: 0
- Plant response rating, Sugarbeets [10, 19]: 5
- Sugarbeets plant response rating [10, 20]: 0
- Sugarbeets plant response rating [10, 21]: 0
- Sugarbeets plant response rating (0 to 10 scale) ([10]; Preemergence, Rate 250 g/ha): 5
- Sugarbeets plant response rating [10, 22]: 8
- Plant response rating, Sugarbeets [10, 23]: 2
- Velvetleaf plant response rating [11, 17]: 0
- Velvetleaf plant response rating [11, 18]: 0
- Plant response rating, Velvetleaf [11, 19]: 2
- Velvetleaf plant response rating [11, 20]: 0
- Velvetleaf plant response rating [11, 21]: 0
- Velvetleaf plant response rating (0 to 10 scale) ([11]; Preemergence, Rate 250 g/ha): 2
- Velvetleaf plant response rating [11, 22]: 4
- Plant response rating, Velvetleaf [11, 23]: 0
- Wheat plant response rating [12, 17]: 0
- Wheat plant response rating [12, 18]: 0
- Plant response rating, Wheat [12, 19]: 0
- Wheat plant response rating [12, 20]: 0
- Wheat plant response rating [12, 21]: 2
- Wheat plant response rating (0 to 10 scale) ([12]; Preemergence, Rate 250 g/ha): 2
- Wheat plant response rating [12, 22]: 2
- Plant response rating, Wheat [12, 23]: 0
- Nutsedge plant response rating [13, 17]: 0
- Nutsedge plant response rating [13, 18]: 0
- Plant response rating, Nutsedge [13, 19]: 2
- Nutsedge plant response rating [13, 20]: 0
- Nutsedge plant response rating [13, 21]: 0
- Nutsedge plant response rating (0 to 10 scale) ([13]; Preemergence, Rate 250 g/ha): 0
- Nutsedge plant response rating [13, 22]: 6
- Plant response rating, Nutsedge [13, 23]: 0
- Plant response rating, Rice (0 to 10 scale, 0 is no effect, 10 is complete control) [14, 24]: 0
- Rice plant response rating (0 to 10 scale, 0 is no effect, 10 is complete control) [14, 25]: 0
- Rice plant response rating [14, 26]: 0
- Rice plant response rating [14, 27]: 0
- Plant response rating, S. Flatsedge (0 to 10 scale, 0 is no effect, 10 is complete control) [15, 24]: 0
- S. Flatsedge plant response rating (0 to 10 scale, 0 is no effect, 10 is complete control) [15, 25]: 0
- S. Flatsedge plant response rating [15, 26]: 0
- S. Flatsedge plant response rating [15, 27]: 0
- Plant response rating, Ducksalad (0 to 10 scale, 0 is no effect, 10 is complete control) [16, 24]: 0
- Ducksalad plant response rating (0 to 10 scale, 0 is no effect, 10 is complete control) [16, 25]: 0
- Ducksalad plant response rating [16, 26]: 0
- Ducksalad plant response rating [16, 27]: 0
